Source: patent US11739318B1, “Modified biosensors and biocatalysts and methods of use” (priority 2017, dated 2023)

Key:
PcaU1.2 = assay: Specificity evaluation of PcaU1.2 sensor against similar aromatic molecules; format: cell-based, P. putida; details: relative to PCA response
Description: For specificity evaluation of the biosensor, PcaU1.2 was tested against molecules with similar functional groups, namely benzoate, 4-hydroxybenzoate (4HB), and catechol. The tested molecules were relatively smaller than PCA, to eliminate any rejection of the molecule from the binding pocket due to steric hindrance.

PobR-DM [1] = assay: Whole cell biosensing of 4HB and benzoate with PobR-DM sensor plasmid; format: cell-based; details: P. putida with pPobR
Description: Whole cell biosensing of 4HB and benzoate: For 4HB sensing activity of the whole cell biosensor, a small scoop of pPobR transformed P. putida cells from a streaked plate or a glycerol stock was grown overnight as a seed culture. The overnight saturated seed culture was then diluted 100-fold in fresh growth medium, grown for 5-6 h at 30° C. to achieve an OD600 of ˜0.6, then distributed in deep 96-well blocks in a volume of 300-500 μL and induced with varying concentrations of 4HB or benzoate. The cultures were grown overnight (14-16 h) under vigorous shaking in a deep-well shaker (Taitec BioShakerM-BR-022UP). The cultures were diluted 100-fold in phosphate-buffered saline (PBS) with 1% sucrose and analyzed using an LSR II flow cytometer (BD Biosciences) or Accuri C6 flow cytometer (BD Biosciences) with standard settings for measurement of GFP fluorescence (ex 488 nm, em ˜530/30 nm). The arithmetic mean fluorescence value of ˜100,000 cells tightly gated based on forward and side scatter (FSC vs SSC) was used for a dose-response plot. Same protocol was followed for comparison of UbiC clones.

UbiC = UbiC (Escherichia coli, UniProt P26602); details: cited from earlier work
PobR-DM [2] = details: protocatechuate only at 1000-fold greater concentration than 4HB; cited from earlier work

Chain of UbiC (P26602 whole entry): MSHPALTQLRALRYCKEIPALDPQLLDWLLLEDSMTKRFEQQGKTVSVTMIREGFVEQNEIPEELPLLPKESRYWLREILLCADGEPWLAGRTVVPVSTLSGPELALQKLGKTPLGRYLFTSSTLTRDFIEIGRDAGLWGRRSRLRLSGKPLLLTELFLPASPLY

Compound	activation of the PcaU1.2 sensor (PcaU1.2)	response of the PobR-DM sensor in E. coli (PobR-DM [2])	other results
O=C(O)c1ccc(O)cc1 [4HB, 4-hydroxybenzoic acid]	Low but measurable activation		
O=C(O)c1ccccc1 [benzoate]	Low but measurable activation		response of the whole cell 4HB biosensor (PobR-DM [1]): did not show any response; Ki (UbiC; inhibitor of UbiC): > 3 mM; affinity weaker / Kp higher than 4HB (UbiC; product inhibition of UbiC): 1000 fold
Oc1ccccc1O [catechol]	a signal that was an appreciable fraction of PCA response		
O=[N+]([O-])c1ccc(O)cc1 [p-nitrophenol]		does not respond	
O=C(O)c1ccc(O)c(O)c1 [protocatechuate, 3,4-dihydroxybenzoate]		very weakly responds	
